Data from PubChem BioAssay AID1963428 (Molecular Pharmacology Branch, DTP, NCI, 2024).

Tested on: 171881-019-R-J1-PDC complex spheroid growth, % test/control
Assay: Anticancer human tumor 171881-019-R-J1-PDC patient-derived invasive breast carcinoma cell line growth inhibition [Asc]
Conditions: for IC50: curve of first compound; for viability, T/C: stronger effect = lower value
Summary of the method: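 Tumor cells were grown as complex spheroids with human endothelial cells (HUVEC) and human mesenchymal stem cells as stroma. Agents were tested alone and in combination, in half-log steps down from the clinical Cmax, or from 10 microM where Cmax was unknown.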
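For viability, T/C in this document: spheroids exposed to compounds for 7 days.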

Compound: CNC(C)C(=O)NC1CN(S(=O)(=O)c2cccc(S(=O)(=O)N3CCC4CCC(C(=O)NC(c5ccccc5)c5ccccc5)N4C(=O)C(NC(=O)C(C)NC)C3)c2)CCC2CCC(C(=O)NC(c3ccccc3)c3ccccc3)N2C1=O (stereo not given) + CCN1C(C(=O)NC23CCC(C(=O)O)(CC2)CC3)C(c2cccc(Cl)c2F)C2(C(=O)Nc3cc(Cl)ccc32)C12CCCCC2
- IC50 (second compound 0.03 µM): > 1000 nM
- IC50 (second compound 0.0949 µM): > 1000 nM
- IC50 (second compound 0.3 µM): > 1000 nM
- IC50 (second compound 0.949 µM): > 1000 nM
- IC50 (second compound 3 µM): > 1000 nM
- viability, T/C (second compound 0.03 µM, first compound 0.00316 µM): 91.6%
- viability, T/C (second compound 0.03 µM, first compound 0.01 µM): 103%
- viability, T/C (second compound 0.03 µM, first compound 0.0316 µM): 99.1%
- viability, T/C (second compound 0.03 µM, first compound 0.1 µM): 93.3%
- viability, T/C (second compound 0.03 µM, first compound 0.316 µM): 93.7%
- viability, T/C (second compound 0.03 µM, first compound 1 µM): 93%
- viability, T/C (second compound 0.0949 µM, first compound 0.00316 µM): 118%
- viability, T/C (second compound 0.0949 µM, first compound 0.01 µM): 96.8%
- viability, T/C (second compound 0.0949 µM, first compound 0.0316 µM): 94.5%
- viability, T/C (second compound 0.0949 µM, first compound 0.1 µM): 91.7%
- viability, T/C (second compound 0.0949 µM, first compound 0.316 µM): 109%
- viability, T/C (second compound 0.0949 µM, first compound 1 µM): 90.2%
- viability, T/C (second compound 0.3 µM, first compound 0.00316 µM): 113%
- viability, T/C (second compound 0.3 µM, first compound 0.01 µM): 103%
- viability, T/C (second compound 0.3 µM, first compound 0.0316 µM): 103%
- viability, T/C (second compound 0.3 µM, first compound 0.1 µM): 109%
- viability, T/C (second compound 0.3 µM, first compound 0.316 µM): 93.5%
- viability, T/C (second compound 0.3 µM, first compound 1 µM): 100%
- viability, T/C (second compound 0.949 µM, first compound 0.00316 µM): 109%
- viability, T/C (second compound 0.949 µM, first compound 0.01 µM): 107%
- viability, T/C (second compound 0.949 µM, first compound 0.0316 µM): 113%
- viability, T/C (second compound 0.949 µM, first compound 0.1 µM): 88.5%
- viability, T/C (second compound 0.949 µM, first compound 0.316 µM): 109%
- viability, T/C (second compound 0.949 µM, first compound 1 µM): 102%
- viability, T/C (second compound 3 µM, first compound 0.00316 µM): 102%
- viability, T/C (second compound 3 µM, first compound 0.01 µM): 115%
- viability, T/C (second compound 3 µM, first compound 0.0316 µM): 106%
- viability, T/C (second compound 3 µM, first compound 0.1 µM): 90.3%
- viability, T/C (second compound 3 µM, first compound 0.316 µM): 100%
- viability, T/C (second compound 3 µM, first compound 1 µM): 96%
